US7291627B2, “Dihydroimidazo[5.1-a]-beta-carboline derivatives, method for their preparation, and their application as a drug” (MACEF, priority 2001, dated 2007)

Tested on: JA 657 chicks
Assay: Chick sleep/sedation test (IM injection, 90 minute observation)
Type: in vivo
Settings: for Sed (sedation time as % of the period) / TA (time to torpor between injection and first stage of sleep) / TS (duration of the first sleep) / Tsed (total sedation time over the period): 90 min observation; for TS (mins) Placebo diff'ce: extension of first sleep compared with test controls
Description: The dihydroimidazo[5,1-a]-β-carboline derivatives of the invention, in particular those in the form of the methyl sulfonate, (soluble), were tested in chicks, and certain compounds that were active in the chick were administered in single doses to six Beagle dogs of both sexes for a polysomnographic study of at least 4 hours duration.
JA 657 chicks from Couvoir Gauguet, 44 Le Pin, were accustomed for at least 6 days to an alternating program of light and darkness with 12 hours of daylight and 12 hours of darkness at a regulated temperature of 25±2° C. They were fed ad libitum and were placed under test compounds in a vivarium in groups of 3 individuals with a mean weight of 100±10 g on the day of the test. At that age in this species, there is no effective meningeal (hemato-encephalic) barrier. The test products were injected in 3 doses (1, 3 and 10 mg/kg) intramuscularly (IM) in solution or in an aqueous suspension (1 drop of Tween 80 per ml), each to two batches of 3 chicks which were observed over 90 minutes. For each test series (18 vivaria), there was at least one batch of negative control chicks receiving the same volume (0.2 ml IM) of water for injectable preparations.
During the 90 minute observation period, the chicks were strongly stimulated every 15 minutes by presenting a full feeding trough, and each 5 minute period was given a grade from among the following 5 states, corresponding to the state of alertness over that period:
Mobile, sitting alert, drowsy, asleep, sleep-like state. The parameters studied were the time to torpor (TA) passed between injection and the first stage of sleep, the duration of the first sleep (TS) and the total sedation time over the period (Tsed), expressed in minutes and as a % of the period (Sed).
To compare the results of tests carried out at different dates, the extension of the duration of the first sleep TS compared with the test controls was recorded.

Structure (SMILES) | Sed (sedation time as % of the period) (Dose: 1 mg/kg) [%] | TA (time to torpor between injection and first stage of sleep) (Dose: 1 mg/kg) [min] | TS (duration of the first sleep) (Dose: 1 mg/kg) [min] | Tsed (total sedation time over the period) (Dose: 1 mg/kg) [min] | TS (mins) Placebo diff'ce (Dose: 1 mg/kg) [min] | Sed (sedation time as % of the period) (Dose: 3 mg/kg) [%] | TA (time to torpor between injection and first stage of sleep) (Dose: 3 mg/kg) [min] | TS (duration of the first sleep) (Dose: 3 mg/kg) [min] | Tsed (total sedation time over the period) (Dose: 3 mg/kg) [min] | TS (mins) Placebo diff'ce (Dose: 3 mg/kg) [min] | Sed (sedation time as % of the period) (Dose: 10 mg/kg) [%] | TA (time to torpor between injection and first stage of sleep) (Dose: 10 mg/kg) [min] | TS (duration of the first sleep) (Dose: 10 mg/kg) [min] | Tsed (total sedation time over the period) (Dose: 10 mg/kg) [min] | TS (mins) Placebo diff'ce (Dose: 10 mg/kg) [min]
CCc1nc(C)n2c1-c1[nH]c3ccc(OC)cc3c1CC2 [Example 5, 1-ethyl-8-methoxy-3-methyl-5,6-dihydro-imidazo[5,1-a]-β-carboline] | 58.3 | 20.5 | 33 | 52.47 | 29 | 76.7 | 14.5 | 53 | 69.0 | 49 | 62.8 | 13.5 | 40.5 | 56.5 | 36.5
CCn1c2c(c3cc(Cl)ccc31)CCn1c-2cnc1C.CS(=O)(=O)O [Example 17, 8-chloro-3-methyl-11-ethyl-5,6-dihydro-imidazo[5,1-a]-β-carboline methane sulfonate] | 41.1 | 12 | 12 | 37 | 11.7 | 33.3 | 7.5 | 23.5 | 30 | 23 | 67.2 | 5 | 43.5 | 60.5 | 43
CS(=O)(=O)O.Cc1ccc2[nH]c3c(c2c1)CCn1c-3cnc1C [Example 18, 3,8-dimethyl-5,6-dihydroimidazo[5,1-a]-β-carboline methane sulfonate] | 69.4 | 5 | 32.5 | 62.5 | 24 | 63.9 | 4.5 | 30.5 | 57.5 | 22.5 | 90.6 | 7.5 | 76 | 81.5 | 68
CCn1c2c(c3cc(C)ccc31)CCn1c-2cnc1C.CS(=O)(=O)O [Example 20, 11-ethyl-3,8-dimethyl-5,6-dihydroimidazo-[5,1-a]-β-carboline methane sulfonate] | 80 | 2 | 65.5 | 72 | 57 | 79.4 | 1.5 | 51.5 | 71.5 | 43.5 | 97.2 | 1.5 | 87.5 | 87.5 | 81.5
CCCc1ncc2n1CCc1c-2n(C)c2ccc(OC)cc12.CS(=O)(=O)O [Example 8, 8-methoxy-11-methyl-3-propyl-5,6-dihydro-imidazo[5,1-a]-β-carboline methane sulfonate] | 42.2 | 16 | 21.5 | 38 | 21 | 60 | 8.5 | 33 | 54 | 32.7 | 76.1 | 5.5 | 41 | 68.5 | 40.7
CCn1c2c(c3ccccc31)CCn1c-2cnc1C.CS(=O)(=O)O [Example 15, 11-ethyl-3-methyl-5,6-dihydroimidazo[5,1-a]-β-carboline methane sulfonate] | 23.9 | 12.5 | 12 | 21.5 | 21 | 45 | 7 | 29.5 | 40.5 | 29 | 80 | 1 | 70 | 72 | 69.7
COc1ccc2[nH]c3c(c2c1)CCn1c(C)nc(-c2ccccc2)c1-3 [Example 4, 8-methoxy-3-methyl-1-phenyl-5,6-dihydro-imidazo[5,1-a]-β-carboline] | 58.9 | 16.5 | 38 | 53.01 | 34 | 72.8 | 14 | 22.5 | 65.5 | 18.5 | 90.6 | 8.5 | 81.5 | 81.5 | 76.5
CS(=O)(=O)O.Cc1ncc2n1CCc1c-2[nH]c2ccc(O)cc12 [Example 11, 8-hydroxy-3-methyl-5,6-dihydroimidazo[5,1-a]-β-carboline methane sulfonate] | 29.4 | 40 | 0 | 26.5 | -0.3 | 38.3 | 15 | 7 | 34.5 | 6.7 | 20.6 | 6 | 9.5 | 18.5 | 9
CS(=O)(=O)O.Cc1ccc2c(c1)c1c(n2C)-c2cnc(C)n2CC1 [Example 19, 3,8,11-trimethyl-5,6-dihydroimidazo[5,1-a]-β-carboline methane sulfonate] | 49.4 | 4 | 17.5 | 44.5 | 11 | 62.8 | 3.5 | 46.5 | 56.5 | 38.5 | 75.0 | 3.5 | 60 | 67.5 | 52
COc1ccc2[nH]c3c(c2c1)CCn1cncc1-3 [Example 3, 8-methoxy-5,6-dihydroimidazo[5,1-a]-β-carboline] | 73.9 | 10 | 40 | 66.51 | 36 | 78.9 | 7 | 66.5 | 71.0 | 62.5 | 86.7 | 6.5 | 77.5 | 78.0 | 73.5
